Data from US20230391776A1, “AMIDE OXAZOLE COMPOUND” (MEDSHINE DISCOVERY INC., priority 2020, published 2023).
Several values for one entry are separate records, joined by “and”; a condition that tells them apart may be missing. Equal entries are not always repeated.

Key:
[1] = system: TNF-α secretion induced by LPS; assay: TNF-α secretion model induced by LPS in SD rats; assay type: in vivo; settings: 25 mpk oral gavage 0.5 h before 1 mg/kg LPS i.p., plasma 2 hours after modeling, p<0.01
Procedure: a) The pharmacokinetic effect of compound WX009 on TNF-α secretion model induced by LPS in SD rats.
Female SD rats were randomly divided into four groups according to the animal weight, namely Sham group, Model group and Dexamethasone (dosage: 0.5 mpk, DEX-0.5 mpk) group and tested drug WX009 (dosage: 25 mpk, WX009-25 mpk) group, with 6-9 animals in each group. The model was established by a single intraperitoneal injection of 1 mg/kg LPS. Dexamethasone and tested drug were given orally by gavage 0.5 h before modeling. After modeling for 2 hours, the animals were weighed, and all the experimental animals were anesthetized by intraperitoneal injection of pentobarbital sodium. An anticoagulant whole blood was collected through sublingual vein, anticoagulant: EDTA-K2, the plasma was separated, and the plasma volume was about 200 μL, which was used to detect the content of inflammatory factor, TNF-α.

[2] = system: human diffuse large B lymphoma TMD8 cell subcutaneous xenograft; assay: TMD8 subcutaneous xenograft tumor model (WX009 study); assay type: in vivo, SCID mouse; settings: 18th day after administration
Excerpt: The formula for calculating the tumor inhibition rate TGI (%)=[1−(average tumor volume at the end of administration in a treatment group-average tumor volume at the beginning of administration in the treatment group))/(average tumor volume at the end of treatment in solvent control group-average tumor volume at the beginning of treatment in solvent control group)]×100%.

[3] = system: human diffuse large B lymphoma TMD8 cell subcutaneous xenograft; assay: TMD8 subcutaneous xenograft tumor model (WX017 and WX027 study); settings: 11th day after administration
Procedure: a) TMD8 cells were cultured in RPMI-1640 medium containing 10% FBS and maintained in a 37° C. saturated humidity incubator with 5% CO2. TMD8 cells in logarithmic period were collected, resuspended in RPMI-1640 basal medium, and Matrigel was added at 1:1, and the cell concentration was adjusted to 4×10^7/mL. Under aseptic conditions, 0.1 mL of cell suspension was inoculated under the skin of the right back of SCID mice, and the inoculation concentration was 4×10^6/0.1 mL/mouse.
When the tumor grew to a certain size, the animals with too large, too small or irregular tumor shape were excluded, and the animals with tumor volume of 108.76-188.11 mm^3 were selected. According to the tumor volume, the animals were divided into 10 groups by random block method, with 6 mice in each group, and the average tumor volume was about 152.11 mm^3. The health status and death of animals were monitored every day, and routine examinations included observing the effects of tumor growth and drug treatment on daily behaviors of animals, such as behavioral activities, food intake and water intake, weight change (weight was measured twice a week), tumor size (tumor volume was measured twice a week), appearance signs or other abnormal conditions.
The formula for calculating tumor volume (TV) was: 1/2×a×b^2, where a and b were the measured length and width of the tumor respectively. The formula for calculating the tumor inhibition rate TGI (%)=[1−(average tumor volume at the end of administration in a treatment group-average tumor volume at the beginning of administration in the treatment group))/(average tumor volume at the end of treatment in solvent control group-average tumor volume at the beginning of treatment in solvent control group)]×100%.
In this study, the experimental data were all expressed by Mean±SEM. Statistical analysis was based on the data of RTV at the end of the experiment and analyzed by IBM SPSS Statistics software. T test was used to analyze the comparison between two groups, and one-way ANOVA was used to analyze the comparison between three or more groups. If the variance was even (there was no significant difference in F value), Tukey's method was used to analyze it, and if the variance was uneven (there was significant difference in F value), Games-Howell method was used to test it. p<0.05 was deemed to a significant difference.

| SMILES | TNF-α content in animal plasma compared with the Model group [1] | TGI ([2]; 5 mg/kg BID PO) | TGI ([2]; 10 mg/kg BID PO) | TGI ([2]; 20 mg/kg BID PO) | TGI ([3]; 3 mg/kg BID PO) | TGI ([3]; 10 mg/kg BID PO) | TGI ([3]; 20 mg/kg BID PO) |
| --- | --- | --- | --- | --- | --- | --- | --- |
| Cc1cc(-c2nc(C(=O)Nc3cn4cc(C(C)(C)O)nc4cc3-c3ccccc3)co2)ccn1 [WX009] | significantly reduce | 86% and 86.28% | 85.10% | 96.55% | – | – | – |
| CC(C)(O)c1cn2cc(NC(=O)c3coc(-c4ccnc(N)c4)n3)c(-c3ccccc3)cc2n1 [WX017] | – | – | – | – | 86% | 100% | 114% |
| CC(C)(O)c1cn2cc(NC(=O)c3coc(-c4ccnc(N)c4F)n3)c(-c3ccccc3)cc2n1 [WX027] | – | – | – | – | 78% | 90% | 104% |
